This is an account of results in patent US11951094B2, “TLR2 modulator compounds, pharmaceutical compositions and uses thereof” (Axial Therapeutics, Inc., priority 2020, dated 2024).

Molecules are shown by their SMILES. pEC50: −log10 of the molar value. Where a name gives a salt, the structure may show the parent alone.

The target in the first test is TLR2 (Homo sapiens, UniProt O60603). The experiment in a line: TLR2 agonist screening assay, HEK-Blue TLR2 reporter cell line (NF-kB-driven SEAP, absorbance at 600 nm). The format is cell-based. Details: host or cells: HEK-293 (HEK-Blue TLR2 reporter cell line). The settings on record: HEK-Blue TLR2 reporter cells, agonist mode; average of all runs (Table 3). The method in brief: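 TLR2 engagement is scored through NF-kB-induced secreted alkaline phosphatase in HEK-293 cells, detected by substrate colour change at 600 nm after overnight compound treatment at 1% final DMSO. Potency is expressed as EC50.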
TLR2, sequence (O60603 21-784): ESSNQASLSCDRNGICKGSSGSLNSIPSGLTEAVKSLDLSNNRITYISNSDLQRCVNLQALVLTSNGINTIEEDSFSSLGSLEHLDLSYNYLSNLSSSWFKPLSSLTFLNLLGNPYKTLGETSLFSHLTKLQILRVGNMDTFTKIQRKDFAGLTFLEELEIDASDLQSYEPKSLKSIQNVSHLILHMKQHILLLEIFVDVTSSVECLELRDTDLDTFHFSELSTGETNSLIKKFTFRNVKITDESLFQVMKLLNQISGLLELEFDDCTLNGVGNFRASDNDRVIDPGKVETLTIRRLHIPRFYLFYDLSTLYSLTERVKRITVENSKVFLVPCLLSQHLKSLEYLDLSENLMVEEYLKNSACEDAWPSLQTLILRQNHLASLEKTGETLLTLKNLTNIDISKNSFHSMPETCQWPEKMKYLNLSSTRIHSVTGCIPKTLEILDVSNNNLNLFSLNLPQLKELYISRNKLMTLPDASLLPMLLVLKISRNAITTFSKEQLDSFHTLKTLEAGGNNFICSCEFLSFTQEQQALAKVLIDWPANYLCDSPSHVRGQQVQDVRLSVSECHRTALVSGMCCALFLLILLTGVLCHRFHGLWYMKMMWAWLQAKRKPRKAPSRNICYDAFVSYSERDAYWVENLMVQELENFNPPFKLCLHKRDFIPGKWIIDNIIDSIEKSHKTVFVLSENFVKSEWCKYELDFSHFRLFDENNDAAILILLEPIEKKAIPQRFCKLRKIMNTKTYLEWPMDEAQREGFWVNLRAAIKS
For `CCCCCCNC(=O)C1CN(C(=O)c2ccc(C(=O)N3C[C@@H](C(=O)N[C@H]4C[C@@H]4c4ccccc4)[C@H](C(=O)N[C@H]4C[C@@H]4c4ccccc4)C3)cc2)CCN1` (stereo partly drawn) [Compound 042, (3S,4S)-1-(4-(3-(hexylcarbamoyl)piperazine-1-carbonyl)benzoyl)-N3,N4-bis((1S,2R)-2-phenylcyclopropyl)pyrrolidine-3,4-dicarboxamide formate], the pEC50 was 6.00 to 6.45.

`CCCCCCCC(=O)N1CCN(C(=O)c2ccc(C(=O)N3C[C@@H](C(=O)N[C@H]4C[C@@H]4c4ccccc4)[C@H](C(=O)N[C@H]4C[C@@H]4c4ccccc4)C3)cc2)C[C@H]1C(=O)NCCCCCC` [Compound 030] had a pEC50 of under 6.00. Still for that read-out and setting: the same measure for `CCCCCCCCCC(=O)N1CCN(C(=O)c2ccc(C(=O)N3C[C@@H](C(=O)N[C@H]4C[C@@H]4c4ccccc4)[C@H](C(=O)N[C@H]4C[C@@H]4c4ccccc4)C3)cc2)CC1C(=O)NCCCCCC` (stereo partly drawn) [Compound 064, (3S,4S)-1-(4-(4-decanoyl-3-(hexylcarbamoyl)piperazine-1-carbonyl)benzoyl)-N3,N4-bis((1S,2R)-2-phenylcyclopropyl)pyrrolidine-3,4-dicarboxamide]: 7.30 to 10.00; for `CCCCCCCCN1CCN(C(=O)c2ccc(C(=O)N3C[C@@H](C(=O)N[C@H]4C[C@@H]4c4ccccc4)[C@H](C(=O)N[C@H]4C[C@@H]4c4ccccc4)C3)cc2)C[C@H]1C(=O)NCCCCCC` [Compound 031]: under 6.00.

Staying with this test, now noted: HEK-Blue TLR2 reporter cells, agonist mode; average of all runs (Table 4).
On to `CCCCCCCCCCCCCCNC(=O)[C@@H]1CN(S(=O)(=O)c2ccc(C(=O)N3C[C@@H](C(=O)N[C@H]4C[C@@H]4c4ccccc4)[C@H](C(=O)N[C@H]4C[C@@H]4c4ccccc4)C3)cc2)CCN1C(C)=O` [Compound 196, (3S,4S)-1-(4-(((S)-4-acetyl-3-(tetradecylcarbamoyl)piperazin-1-yl)sulfonyl)benzoyl)-N3,N4-bis((1S,2R)-2-phenylcyclopropyl)pyrrolidine-3,4-dicarboxamide], for which the pEC50 is under 6.00. On the same count and under the same terms, the same measure for `O=C(N[C@H]1C[C@@H]1c1ccccc1)[C@@H]1CN(C(=O)C23CCC(C(=O)N4C[C@@H](C(=O)N[C@H]5C[C@@H]5c5ccccc5)[C@H](C(=O)N[C@H]5C[C@@H]5c5ccccc5)C4)(CC2)C3)C[C@H]1C(=O)N[C@H]1C[C@@H]1c1ccccc1` [Compound 081, (3S,3'S,4S,4'S)-1,1′-(bicyclo [2.2.1]heptane-1,4-dicarbonyl) bis (N3,N4-bis((1S,2R)-2-phenylcyclopropyl)pyrrolidine-3,4-dicarboxamide)]: 6.00 to 6.45; for `CCCCCCCCCCCCCCC(=O)N[C@H]1CN(C(=O)c2ccc(C(=O)N3C[C@@H](C(=O)N[C@H]4C[C@@H]4c4ccccc4)[C@H](C(=O)N[C@H]4C[C@@H]4c4ccccc4)C3)cc2)C[C@H]1OC` [Compound 236, (3S,4S)-1-(4-((3R,4S)-3-methoxy-4-pentadecanamidopyrrolidine-1-carbonyl)benzoyl)-N3,N4-bis ((1S,2R)-2-phenylcyclopropyl) pyrrolidine-3,4-dicarboxamide]: 7.30 to 10.00. Molecule `CCCCCCCC(=O)N1CCCN(C(=O)c2cccc(C(=O)N3C[C@@H](C(=O)N[C@H]4C[C@@H]4c4ccccc4)[C@H](C(=O)N[C@H]4C[C@@H]4c4ccccc4)C3)c2)C[C@@H]1C(=O)NCCCCCC` (single isomer, unassigned) [Compound 191] gave a pEC50 of 6.00 to 6.45.

As for `CCCCCCCCCCCCNC(=O)N[C@H]1CN(C(c2ccc(C(=O)N3C[C@@H](C(=O)N[C@H]4C[C@@H]4c4ccccc4)[C@H](C(=O)N[C@H]4C[C@@H]4c4ccccc4)C3)cc2)C(F)(F)F)C[C@@H]1OC` (single isomer, unassigned) [Compound 232, (3S,4S)-1-(4-((R*)-1-((3S,4S)-3-(3-dodecylureido)-4-methoxypyrrolidin-1-yl)-2,2,2-trifluoroethyl)benzoyl)-N3,N4-bis((1S,2R)-2-phenylcyclopropyl)pyrrolidine-3,4-dicarboxamide], the pEC50 was 7.30 to 10.00. Still for that read-out and setting: next, `CCCCCNC(=O)[C@@H]1CN(C(=O)c2ccc(C(=O)N3C[C@@H](C(=O)N[C@H]4C[C@@H]4c4ccccc4)[C@H](C(=O)N[C@H]4C[C@@H]4c4ccccc4)C3)cc2)CCN1C(C)=O` [Compound 264, (3S,4S)-1-(4-((S)-4-acetyl-3-(pentylcarbamoyl)piperazine-1-carbonyl)benzoyl)-N3,N4-bis((1S,2R)-2-phenylcyclopropyl) pyrrolidine-3,4-dicarboxamide]: under 6.00. In the case of `CCCCCCCO[C@@H]1CN(C(=O)c2ccc(C(=O)N3C[C@@H](C(=O)N[C@H]4C[C@@H]4c4ccccc4)[C@H](C(=O)N[C@H]4C[C@@H]4c4ccccc4)C3)cc2)C[C@@H]1C(=O)NCCCCCC` (relative stereo) [Compound 116, (3S,4S)-1-(4-((3S*,4S*)-3-(heptyloxy)-4-(hexylcarbamoyl)pyrrolidine-1-carbonyl)benzoyl)-N3,N4-bis((1S,2R)-2-phenylcyclopropyl)pyrrolidine-3,4-dicarboxamide], the pEC50 was 6.00 to 6.45. Still for that read-out and setting: the same measure for `CCCCCCCCCCCCCNC(=O)N[C@H]1CN(c2nnc(-c3ccc(C(=O)N4C[C@@H](C(=O)N[C@H]5C[C@@H]5c5ccccc5)[C@H](C(=O)N[C@H]5C[C@@H]5c5ccccc5)C4)cc3)[nH]2)C[C@@H]1OC` [Compound 237, (3S,4S)-1-(4-(5-((3S,4S)-3-methoxy-4-(3-tridecylureido)pyrrolidin-1-yl)-4H-1,2,4-triazol-3-yl)benzoyl)-N3,N4-bis((1S,2R)-2-phenylcyclopropyl)pyrrolidine-3,4-dicarboxamide]: under 6.00; for `CCCCCCCCCCCCCCNC(=O)[C@H]1CN(C(=O)c2ccc(C(=O)N3C[C@@H](C(=O)N[C@H]4C[C@@H]4c4ccccc4)[C@H](C(=O)N[C@H]4C[C@@H]4c4ccccc4)C3)cc2)CCO1` [Compound 150, (3S,4S)—N3,N4-bis ((1S,2R)-2-phenylcyclopropyl)-1-(4-((R)-2-(tetradecylcarbamoyl)morpholine-4-carbonyl)benzoyl) pyrrolidine-3,4-dicarboxamide]: 6.46 to 7.29. Still for that read-out and setting: next, `CCCCCCCC(=O)N1CCCN(C(=O)c2ccc(C(=O)N3C[C@@H](C(=O)N[C@H]4C[C@@H]4c4ccccc4)[C@H](C(=O)N[C@H]4C[C@@H]4c4ccccc4)C3)cc2)C[C@H]1C(=O)NCCCCCC` (single isomer, unassigned) [Compound 145]: under 6.00. Still for that read-out and setting: next, `CCCCCCCC[C@H]1CN(C(=O)c2ccc(C(=O)N3C[C@@H](C(=O)N[C@H]4C[C@@H]4c4ccccc4)[C@H](C(=O)N[C@H]4C[C@@H]4c4ccccc4)C3)cc2)C[C@@H]1C(=O)NCCCCCC` (single isomer, unassigned) [Compound 112]: 6.46 to 7.29; `CCCCCCCC(=O)N1CCCN(S(=O)(=O)c2cccc(C(=O)N3C[C@@H](C(=O)N[C@H]4C[C@@H]4c4ccccc4)[C@H](C(=O)N[C@H]4C[C@@H]4c4ccccc4)C3)c2)C[C@H]1C(=O)NCCCCCC` (single isomer, unassigned) [Compound 200]: under 6.00; `CCCCCCNC(=O)C[C@@H](NC(=O)c1ccc(C(=O)N2C[C@@H](C(=O)N[C@H]3C[C@@H]3c3ccccc3)[C@H](C(=O)N[C@H]3C[C@@H]3c3ccccc3)C2)cc1)C(=O)NCCCCCC` [Compound 117, (3S,4S)-1-(4-(((R)-1,4-bis(hexylamino)-1,4-dioxobutan-2-yl)carbamoyl)benzoyl)-N3,N4-bis((1S,2R)-2-phenylcyclopropyl) pyrrolidine-3,4-dicarboxamide]: under 6.00.

What is called pEC50 is the negative decadic logarithm of the EC50, by convention in mol/L. High values mean a low EC50, low ones a high EC50.
